# Assay results from patent EP0538248B1, “TETRAHYDROISOQUINOLINYLCARBAMATES OF 1,2,3,3A,8,8A-HEXAHYDRO-1,3A,8-TRIMETHYLPYRROLO [2,3-B]INDOLE” (priority 1990, dated 1992).
# Where two headings read alike, the source gives them in different places.
# Legend:
# [1] = Stability on incubation with human plasma at 37°C; assay type: in vitro ADME; conditions: after 4 hours
# [2] = Oral bioavailability studies (absorption, brain:plasma partition)
# anesthetized dogs = test: Cardiovascular effects in anesthetized dogs during combined blockade of alpha and beta adrenergic receptors
# Procedure: (§1) Beagles of either sex are anesthetized with sodium thiopental 15 mg/kg + sodium barbital 200 mg/kg + 60 mg of sodium pentobarbital i.v. The trachea is intubated with a cuffed endotracheal tube and connected to a Harvard Respirator Pump set at 20 ml/stroke and 10 strokes/minute. The right femoral artery and vein are exposed and cannulated with polyethylene tubing for measurement of arterial blood pressure and i.v. administration of drugs, respectively. The duration of these experiments is two hours postdrug when drug is administered i.v. and three hours when administered i.d.
# The arterial cannula is connected to a Statham P23Gb transducer. Left ventricular cardiac catheterization is accomplished by introducing a Millar microtip pressure transducer into the left carotid artery and advancing it to the left ventricle. The cannula is connected to a Millar TC-100 transducer control unit which is connected to a Beckman voltage/pressure pulse coupler. Ventricular pressure and its first derivative dP/dt are measured simultaneously by wiring the signal output from the left ventricular pressure tracing into a differentiator. […] The proximal lumen of this catheter is in the right atrium when the distal lumen and thermistor have been properly placed in the pulmonary artery. […] Cardiac output is determined by injecting 5 ml of iced 5% dextrose in water into the proximal site (right atrium) and then measuring the temperature change in the pulmonary artery. Using the Stewart-Hamilton equation, the cardiac output can be determined by integrating the area under the thermodilution curve with an Edwards Cardiac Output Computer (model 9520). Heart rate is determined with a Beckman Cardiotach which sums the pressure waves from the pulse pressure curve of the arterial pressure. Lead II EKG is recorded. […] The measurement of these parameters provides information so that the following may be either measured directly or calculated: • 1. […] Central Venous Pressure - CVP measured as right atrial pressure (RAP) mmHg or cmH2O. • 9. […]
# rat brain AChE = biological target: T1, rat brain AChE (Rattus norvegicus, UniProt P37136)
# T1 sequence (P37136 32-614): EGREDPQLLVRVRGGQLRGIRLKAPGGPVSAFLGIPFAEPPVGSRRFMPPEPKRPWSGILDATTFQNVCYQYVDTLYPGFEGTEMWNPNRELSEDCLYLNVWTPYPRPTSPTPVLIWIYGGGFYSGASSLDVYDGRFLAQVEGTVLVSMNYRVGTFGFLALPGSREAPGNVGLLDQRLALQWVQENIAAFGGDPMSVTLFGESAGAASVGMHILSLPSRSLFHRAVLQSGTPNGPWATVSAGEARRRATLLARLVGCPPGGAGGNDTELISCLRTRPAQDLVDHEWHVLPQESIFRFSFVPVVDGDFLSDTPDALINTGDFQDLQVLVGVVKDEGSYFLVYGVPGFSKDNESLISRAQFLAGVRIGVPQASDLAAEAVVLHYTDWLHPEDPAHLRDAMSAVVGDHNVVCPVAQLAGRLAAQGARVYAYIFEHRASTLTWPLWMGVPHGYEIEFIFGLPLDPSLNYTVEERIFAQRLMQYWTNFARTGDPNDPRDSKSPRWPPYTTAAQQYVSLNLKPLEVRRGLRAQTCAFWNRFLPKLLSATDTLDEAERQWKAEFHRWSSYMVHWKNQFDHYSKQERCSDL
# Procedure: The method described below was used in this invention for assaying cholinesterase activity. This is a modification of the method of Ellman et al., Biochem. Pharmacol. 7, 98 (1961).
# • A. Reagents - • 1. 0.05 M Phosphate buffer, pH 7.2 • (a) 6.85 g NaH2PO4•H2O/100 ml distilled H2O • (b) 13.40 g Na2HPO4•7H2O/100 ml distilled H2O • (c) add (a) to (b) until pH reaches 7.2 • (d) Dilute 1:10 • 2. Substrate in buffer • (a) 198 mg acetylthiocholine chloride (10 mM) • (b) q.s to 100 ml with 0.05 M phosphate buffer, pH 7.2 (reagent 1) • 3. DTNB in buffer • (a) 19.8 mg 5,5-dithiobisnitrobenzoic acid (DTNB) (0.5 mM) • (b) q.s. to 100 ml with 0.05 M phosphate buffer, pH 7.2 (reagent 1) • 4. A 2 mM stock solution of the test drug is made up in a suitable solvent and q.s. to volume with 0.5 mM DTNB (reagent 3). Drugs are serially diluted (1:10) such that the final concentration (in cuvette) is 10^-4 M and screened for activity. If active, IC50 values are determined from the inhibitory activity of subsequent concentrations. • B. Tissue Preparation- Male Wistar rats are decapitated, brains rapidly removed, copora striata disected free, weighed and homogenized in 19 volumes (approximately 7 mg protein/ml) of 0.05 M phosphate buffer, pH 7.2 using a Potter-Elvehjem homogenizer. A 25 microliter aliquot of the homogenate is added to 1.0 milliter vehicle or various concentrations of the test drug and preincubated for 10 minutes at 37°C. • C. Assay- Enzyme activity is measured with the Beckman DU-50 spectrophotometer. This method can be used for IC50 determinations and for measuring kinetic constants. Instruments Settings • Kinetics Soft-Pac Module #598273 (10) • Program #6 Kindata: • Source - Vis • Wavelength - 412 nm • Sipper - none • Cuvettes - 2 ml cuvettes using auto 6-sampler • Blank - 1 for each substrate concentration • Interval time - 15 seconds (15 or 30 seconds for kinetics) • Total time - 5 minutes (5 or 10 minutes for kinetics) • Plot - yes • Span - autoscale • Slope - increasing • Results - yes (gives slope) • Factor - 1
# Reagents are added to the blank and sample cuvettes as follows: Blank: 0.8 ml Phosphate Buffer/DTNB 0.8 ml Buffer/Substrate Control: 0.8 ml Phosphate Buffer/DTNB/Enzyme 0.8 ml Phosphate Buffer/Substrate Drug: 0.8 ml Phosphate Buffer/DTNB/Drug/ Enzyme 0.8 ml Phosphate Buffer/Substrate Blank values are determined for each run to control for non-enzymatic hydrolysis of substrate and these values are automatically subtracted by the kindata program available on kinetics soft-pac module. This program also calculates the rate of absorbance change for each cuvette.
# Substrate concentration is 10 mM diluted 1:2 in assay yielding final concentration of 5 mM.
# [3] = test system: [^3H]norepinephrine release; test: [3H]norepinephrine release in vitro; assay type: biochemical, Rat; conditions: Compound A at 100 µM
# butyrylcholinesterase = butyrylcholinesterase (Homo sapiens, UniProt P06276); conditions: relative to physostigmine
# anesthetized dog = test: Acute cardiovascular hemodynamic evaluation in the anesthetized dog; conditions: for CO: cardiac output; for HR: heart rate; for MAP: mean arterial blood pressure; for LVEDP: left ventricular end-diastolic pressure; for RAP: right atrial pressure
# Procedure: (Details of test methods used for determining acute cardiovascular hemodynamic effects are presented following the Conclusion section).
# as §1
# The arterial cannula is connected to a Statham P23Gb transducer. Left ventricular cardiac catheterization is accomplished by introducing a Millar microtip pressure transducer into the left carotid artery and advancing it to the left ventricle. The cannula is connected to a Millar TC-100 transducer control unit which is connected to a Beckman voltage/pressure pulse coupler. Ventricular pressure and its first derivative dP/dt are measured simultaneously by wiring the signal output from the left ventricular pressure tracing into a differentiator. […] The proximal lumen of this catheter is in the right atrium when the distal lumen and thermistor have been properly placed in the pulmonary artery. The signal outputs from the proximal and distal sites are connected to Statham P23BB transducers to measure right atrial pressure (RAP) and pulmonary artery pressure (PAP). Cardiac output is determined by injecting 5 ml of iced 5% dextrose in water into the proximal site (right atrium) and then measuring the temperature change in the pulmonary artery. Using the Stewart-Hamilton equation, the cardiac output can be determined by integrating the area under the thermodilution curve with an Edwards Cardiac Output Computer (model 9520). Heart rate is determined with a Beckman Cardiotach which sums the pressure waves from the pulse pressure curve of the arterial pressure. Lead II EKG is recorded. […] The measurement of these parameters provides information so that the following may be either measured directly or calculated: • 1. Mean Arterial Blood Pressure - MAP (mmHg) • 2. Heart Rate - HR • 3. Cardiac Output - CO (1/minute) • 4. Total Peripheral Resistance - TPR • 5. Cardiac Index - CI (CO/m^2) • 6. Stroke Volume - SV (ml/beat) • 7. Stroke Work - SW (gm-m/beat) • 8. Central Venous Pressure - CVP measured as right atrial pressure (RAP) mmHg or cmH2O. • 9. Left Ventricular End Diastolic Pressure - LVEDP (mmHg) • 10. Rate of Rise of Ventricular Pressure - dP/dt/Pmax This parameter is a better estimate of the contractile state of the myocardium that dP/ dt alone since the former is relatively independent of the loading conditions of the heart (sec^-1). • 11. Plumonary Artery Pressure - PAP (mmHg) • 12. Electrocardiogram - EKG
# [4] = 0.01 mg/kg/min. i.v., anesthetized dog
# [5] = 0.1 mg/kg/min. i.v., anesthetized dog
# [6] = 0.01 mg/kg/min i.v. during alpha and beta receptor blockade
# Chain of butyrylcholinesterase (P06276 29-602): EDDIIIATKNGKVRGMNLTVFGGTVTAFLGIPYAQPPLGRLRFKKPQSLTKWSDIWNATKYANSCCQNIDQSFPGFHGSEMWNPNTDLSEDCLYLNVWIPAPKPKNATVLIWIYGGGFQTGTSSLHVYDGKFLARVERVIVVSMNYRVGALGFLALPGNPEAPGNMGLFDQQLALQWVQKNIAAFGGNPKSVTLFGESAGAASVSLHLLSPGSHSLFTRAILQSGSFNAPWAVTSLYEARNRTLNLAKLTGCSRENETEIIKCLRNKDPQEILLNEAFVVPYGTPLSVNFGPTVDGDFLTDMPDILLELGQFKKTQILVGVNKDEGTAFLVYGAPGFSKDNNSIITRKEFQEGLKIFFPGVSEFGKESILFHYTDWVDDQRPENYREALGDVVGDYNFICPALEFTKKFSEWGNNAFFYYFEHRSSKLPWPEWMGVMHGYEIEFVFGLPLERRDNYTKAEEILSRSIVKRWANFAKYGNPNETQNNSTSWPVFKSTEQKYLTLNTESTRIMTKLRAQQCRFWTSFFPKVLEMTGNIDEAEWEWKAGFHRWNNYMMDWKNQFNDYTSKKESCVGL
Compound,compound remaining after incubation with human plasma [1],oral absorption / bioavailability [2],TRP (anesthetized dog; [4]) [%],dP/dT (anesthetized dog; [4]),TRP (anesthetized dog; [5]),dP/dT (anesthetized dog; [5]),CO (anesthetized dog; [5]),HR (anesthetized dog; [4]) [%],HR (anesthetized dog; [5]) [%],MAP (anesthetized dog; [4]) [%],MAP (anesthetized dog; [5]),also measured
"(3aS-cis)-1,2,3,3a,8,8a-hexahydro-1,3a,8-trimethylpyrrolo[2,3-b]indol-5-ol,(1,2,3,4-tetrahydroisoquinolinyl)carbamate [Compound A]",approximately 70%,rapidly absorbed orally,-18,+37%,+61%,+38%,+40%,-12,-13,-12,+54%,"cardiac and hemodynamic effects (anesthetized dogs; 0.1 mg/kg/min i.v. during alpha and beta adrenergic blockade): moderate decreases in blood pressure and cardiac output; accumulation effect on repeated administration (rat brain AChE; 20 mg/kg for four days in rats): no accumulation effect; inhibition of rat brain AChE ex vivo (rat brain AChE; 20 mg/kg, 4 hours after oral administration): significantly inhibitied; inhibition of rat brain AChE ex vivo (rat brain AChE; 20 mg/kg, 6 hours after oral administration): significantly inhibitied; inhibition of rat brain AChE ex vivo (rat brain AChE; 20 mg/kg, 24 hours after oral administration): not statistically significant; inhibition of rat brain AChE ex vivo (rat brain AChE; after oral administration): significant inhibition; [^3H]norepinephrine release in vitro [3]: stimulated; potency as an inhibitor of butyrylcholinesterase, times less potent than physostigmine (butyrylcholinesterase): approximately 34 times"
CNC(=O)Oc1ccc2c(c1)[C@]1(C)CCN(C)[C@@H]1N2C [physostigmine],completely destroyed,so poorly bioavailable by the oral route that pharmacokinetic data was not available,-34,-32%,-48%,-80%,-79%,-49,-82,-49,-78%,"mortality (dogs) (anesthetized dogs; [6]): 3 out of 3; time to mortality (anesthetized dogs; [6]): 17 to 29 min; mortality (anesthetized dog; 0.01 mg/kg/min i.v., intact alpha and beta adrenergic receptors): no mortality; ECG (anesthetized dog; [5]): A-V block inc. T wave; CO (anesthetized dog; [4]): -23%; LVEDP (anesthetized dog; [4]): +5mmHG; LVEDP (anesthetized dog; [5]): +8mmHG; RAP (anesthetized dog; [4]): +5mmHG; RAP (anesthetized dog; [5]): +8mmHG"
